# Reference: the OligoGym collection
# Bases are written 5' to 3'; sugars and linkages follow in the same order, as letters with counts (s phosphorothioate, o phosphodiester; PS: all linkages phosphorothioate). C may stand for cytosine or 5-methylcytosine; the collection does not tell. l = locked nucleic acid (LNA); d = 2'-deoxy (DNA)
# Target: HIF1A
# Assay: HeLa, 100 nM transfected, 24 h, mean of 3
# Settings: ASO
row,Sequence,caspase activation (% of PBS control)
1,"TGGCAAGCATCCTGTA (sugars l2 d1 l1 d11 l1, PS)",378
2,"TGGCAAGCATCCTGTA (sugars l2 d1 l2 d6 l5, PS)",477
3,"TGGCAAGCATCCTGTA (sugars l2 d1 l2 d7 l4, PS)",394
4,"TGGCAAGCATCCTGTA (sugars l2 d1 l2 d8 l3, PS)",407
5,"TGGCAAGCATCCTGTA (sugars l2 d1 l2 d9 l2, PS)",419
6,"TGGCAAGCATCCTGTA (sugars l2 d1 l2 d10 l1, PS)",401
7,"TGGCAAGCATCCTGTA (sugars l2 d2 l1 d6 l5, PS)",432
8,"TGGCAAGCATCCTGTA (sugars l2 d2 l1 d7 l4, PS)",366
9,"TGGCAAGCATCCTGTA (sugars l2 d2 l1 d8 l3, PS)",397
10,"TGGCAAGCATCCTGTA (sugars l2 d2 l1 d9 l2, PS)",391
11,"TGGCAAGCATCCTGTA (sugars l2 d2 l1 d10 l1, PS)",423
12,"TGGCAAGCATCCTGTA (sugars l2 d9 l1 d1 l3, PS)",369
13,"TGGCAAGCATCCTGTA (sugars l2 d9 l1 d2 l2, PS)",424
14,"TGGCAAGCATCCTGTA (sugars l2 d9 l1 d3 l1, PS)",413
15,"TGGCAAGCATCCTGTA (sugars l2 d9 l2 d1 l2, PS)",401
16,"TGGCAAGCATCCTGTA (sugars l2 d9 l2 d2 l1, PS)",422
17,"TGGCAAGCATCCTGTA (sugars l2 d9 l3 d1 l1, PS)",352
18,"TGGCAAGCATCCTGTA (sugars l2 d9 l5, PS)",368
19,"TGGCAAGCATCCTGTA (sugars l2 d10 l1 d1 l2, PS)",376
20,"TGGCAAGCATCCTGTA (sugars l2 d10 l1 d2 l1, PS)",377

row,Sequence,caspase activation (% of PBS control)
1,"TGGCAAGCATCCTGTA (sugars l2 d10 l2 d1 l1, PS)",366
2,"TGGCAAGCATCCTGTA (sugars l2 d10 l4, PS)",346
3,"TGGCAAGCATCCTGTA (sugars l2 d11 l1 d1 l1, PS)",369
4,"TGGCAAGCATCCTGTA (sugars l2 d11 l3, PS)",365
5,"TGGCAAGCATCCTGTA (sugars l2 d12 l2, PS)",389
6,"TGGCAAGCATCCTGTA (sugars l2 d13 l1, PS)",489
7,"TGGCAAGCATCCTGTA (sugars l3 d1 l1 d6 l5, PS)",536
8,"TGGCAAGCATCCTGTA (sugars l3 d1 l1 d7 l4, PS)",377
9,"TGGCAAGCATCCTGTA (sugars l3 d1 l1 d8 l3, PS)",413
10,"TGGCAAGCATCCTGTA (sugars l3 d1 l1 d9 l2, PS)",382
11,"TGGCAAGCATCCTGTA (sugars l3 d1 l1 d10 l1, PS)",354
12,"TGGCAAGCATCCTGTA (sugars l3 d8 l1 d1 l3, PS)",477
13,"TGGCAAGCATCCTGTA (sugars l3 d8 l1 d2 l2, PS)",297
14,"TGGCAAGCATCCTGTA (sugars l3 d8 l1 d3 l1, PS)",230
15,"TGGCAAGCATCCTGTA (sugars l3 d8 l2 d1 l2, PS)",414
16,"TGGCAAGCATCCTGTA (sugars l3 d8 l2 d2 l1, PS)",221
17,"TGGCAAGCATCCTGTA (sugars l3 d8 l3 d1 l1, PS)",449
18,"TGGCAAGCATCCTGTA (sugars l3 d8 l5, PS)",476
19,"TGGCAAGCATCCTGTA (sugars l3 d9 l1 d1 l2, PS)",416
